Data as given in PMC8213057, “Targeting ALK2: An Open Science Approach to Developing Therapeutics for the Treatment of Diffuse Intrinsic Pontine Glioma” (Journal of Medicinal Chemistry, 2020).

What was measured:
EPHA6 = molecular target: T1, EPHA6 (Homo sapiens, UniProt Q9UF33); experiment: biochemical; details: read-out: % enzyme activity, 1 μM; Run 1, Run 2
T1 sequence (Q9UF33 23-1036): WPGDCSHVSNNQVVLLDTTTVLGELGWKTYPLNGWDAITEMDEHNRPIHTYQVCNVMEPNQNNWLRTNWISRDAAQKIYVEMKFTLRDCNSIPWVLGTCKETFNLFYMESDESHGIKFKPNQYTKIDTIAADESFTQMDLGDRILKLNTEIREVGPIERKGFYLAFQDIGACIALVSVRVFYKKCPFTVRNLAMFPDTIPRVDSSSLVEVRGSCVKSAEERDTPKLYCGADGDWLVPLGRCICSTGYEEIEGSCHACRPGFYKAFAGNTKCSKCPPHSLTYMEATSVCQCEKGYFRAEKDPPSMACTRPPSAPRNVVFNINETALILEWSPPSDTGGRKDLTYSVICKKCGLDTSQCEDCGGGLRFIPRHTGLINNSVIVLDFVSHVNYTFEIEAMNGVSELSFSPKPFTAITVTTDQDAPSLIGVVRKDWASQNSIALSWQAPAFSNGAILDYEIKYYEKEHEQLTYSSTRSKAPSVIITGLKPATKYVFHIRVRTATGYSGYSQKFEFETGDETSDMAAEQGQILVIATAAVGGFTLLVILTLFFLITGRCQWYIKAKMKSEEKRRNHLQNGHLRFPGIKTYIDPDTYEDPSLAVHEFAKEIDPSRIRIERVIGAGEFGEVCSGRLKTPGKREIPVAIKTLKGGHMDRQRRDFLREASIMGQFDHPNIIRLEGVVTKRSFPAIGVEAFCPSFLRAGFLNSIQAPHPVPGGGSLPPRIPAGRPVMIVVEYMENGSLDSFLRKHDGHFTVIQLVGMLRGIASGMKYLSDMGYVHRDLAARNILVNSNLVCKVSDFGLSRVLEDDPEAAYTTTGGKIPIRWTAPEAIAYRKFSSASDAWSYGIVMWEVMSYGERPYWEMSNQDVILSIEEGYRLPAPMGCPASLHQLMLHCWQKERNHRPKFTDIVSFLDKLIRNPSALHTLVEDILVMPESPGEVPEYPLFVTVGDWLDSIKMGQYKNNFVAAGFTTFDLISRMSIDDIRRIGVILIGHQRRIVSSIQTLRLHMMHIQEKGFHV

CLK2 = CLK2 (Homo sapiens, UniProt P49760); details: 1 μM; Run 1, Run 2
Sequence of CLK2 (P49760 whole entry): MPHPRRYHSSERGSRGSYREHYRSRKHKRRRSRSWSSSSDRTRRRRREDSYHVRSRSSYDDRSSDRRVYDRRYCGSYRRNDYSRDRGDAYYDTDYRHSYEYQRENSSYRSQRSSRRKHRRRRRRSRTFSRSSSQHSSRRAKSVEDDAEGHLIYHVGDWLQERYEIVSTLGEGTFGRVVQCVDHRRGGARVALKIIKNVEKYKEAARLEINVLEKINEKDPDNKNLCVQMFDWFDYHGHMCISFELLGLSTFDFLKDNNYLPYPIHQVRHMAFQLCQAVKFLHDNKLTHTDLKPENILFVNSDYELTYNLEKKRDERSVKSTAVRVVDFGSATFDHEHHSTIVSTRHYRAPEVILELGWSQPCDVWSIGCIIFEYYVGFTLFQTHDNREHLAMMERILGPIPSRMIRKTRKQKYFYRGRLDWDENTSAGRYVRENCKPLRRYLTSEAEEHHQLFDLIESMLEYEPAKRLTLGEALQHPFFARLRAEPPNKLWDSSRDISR

PLK1 = PLK1 (Homo sapiens, UniProt P53350); details: 1 μM; Run 1, Run 2
Sequence of PLK1 (P53350 whole entry): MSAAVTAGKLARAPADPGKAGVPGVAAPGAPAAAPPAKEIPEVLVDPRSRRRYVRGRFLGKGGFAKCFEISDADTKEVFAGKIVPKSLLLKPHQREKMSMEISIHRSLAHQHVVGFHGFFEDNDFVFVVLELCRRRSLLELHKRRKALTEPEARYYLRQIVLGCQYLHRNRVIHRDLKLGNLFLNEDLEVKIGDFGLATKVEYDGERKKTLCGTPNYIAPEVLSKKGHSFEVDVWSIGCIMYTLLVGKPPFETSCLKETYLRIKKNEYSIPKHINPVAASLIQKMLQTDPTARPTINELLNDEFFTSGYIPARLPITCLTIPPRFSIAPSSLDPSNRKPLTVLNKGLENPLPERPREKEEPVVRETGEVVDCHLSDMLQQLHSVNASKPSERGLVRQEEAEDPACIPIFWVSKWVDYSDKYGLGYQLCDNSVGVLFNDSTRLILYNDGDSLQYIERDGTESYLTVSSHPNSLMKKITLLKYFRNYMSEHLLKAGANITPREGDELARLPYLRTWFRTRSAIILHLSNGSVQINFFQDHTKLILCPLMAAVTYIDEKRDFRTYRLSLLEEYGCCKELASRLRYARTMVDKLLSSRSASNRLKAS

MST1/STK4 = molecular target: T2, MST1/STK4 (Homo sapiens, UniProt Q13043); experiment: biochemical; details: read-out: % enzyme activity, 1 μM; Run 1, Run 2
T2 sequence (Q13043 1-487): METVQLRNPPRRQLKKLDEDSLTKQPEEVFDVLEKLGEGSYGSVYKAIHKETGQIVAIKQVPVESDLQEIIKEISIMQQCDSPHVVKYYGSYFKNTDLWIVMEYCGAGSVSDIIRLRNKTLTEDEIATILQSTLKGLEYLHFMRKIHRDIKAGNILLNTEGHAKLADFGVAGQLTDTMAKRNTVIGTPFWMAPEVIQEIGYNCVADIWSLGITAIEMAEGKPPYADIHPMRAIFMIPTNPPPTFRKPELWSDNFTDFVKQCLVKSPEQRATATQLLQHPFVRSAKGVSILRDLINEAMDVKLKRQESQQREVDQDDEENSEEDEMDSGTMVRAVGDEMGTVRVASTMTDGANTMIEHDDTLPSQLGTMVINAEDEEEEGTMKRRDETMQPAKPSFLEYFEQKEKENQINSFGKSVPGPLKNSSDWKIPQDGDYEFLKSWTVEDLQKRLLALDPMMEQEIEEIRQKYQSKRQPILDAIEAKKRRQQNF

FGR = FGR (Homo sapiens, UniProt P09769); details: 1 μM; Run 1, Run 2
Sequence of FGR (P09769 whole entry): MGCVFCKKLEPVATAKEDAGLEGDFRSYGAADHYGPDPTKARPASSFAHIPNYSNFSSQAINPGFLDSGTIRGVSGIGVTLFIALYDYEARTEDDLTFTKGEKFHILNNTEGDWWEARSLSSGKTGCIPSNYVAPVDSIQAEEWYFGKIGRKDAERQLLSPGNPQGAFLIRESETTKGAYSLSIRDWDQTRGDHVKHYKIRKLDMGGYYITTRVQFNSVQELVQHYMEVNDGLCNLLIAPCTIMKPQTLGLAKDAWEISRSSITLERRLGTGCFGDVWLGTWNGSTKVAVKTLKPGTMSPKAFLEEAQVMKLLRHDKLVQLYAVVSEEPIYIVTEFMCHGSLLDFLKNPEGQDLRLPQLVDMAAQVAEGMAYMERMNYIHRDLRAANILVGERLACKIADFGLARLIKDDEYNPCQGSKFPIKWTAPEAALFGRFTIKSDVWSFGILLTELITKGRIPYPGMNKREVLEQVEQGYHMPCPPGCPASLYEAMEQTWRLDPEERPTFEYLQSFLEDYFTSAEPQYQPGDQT

ALK3/BMPR1A = molecular target: T3, ALK3/BMPR1A (Homo sapiens, UniProt P36894); experiment: 375-member kinase panel; type: biochemical; details: Run 1, Run 2; for % enzyme activity: 1 μM; for remaining activity at 1 µM: read-out: % enzyme activity, 1 μM
T3 construct: purchased Reaction Biology Corporation
T3 sequence (P36894 24-532): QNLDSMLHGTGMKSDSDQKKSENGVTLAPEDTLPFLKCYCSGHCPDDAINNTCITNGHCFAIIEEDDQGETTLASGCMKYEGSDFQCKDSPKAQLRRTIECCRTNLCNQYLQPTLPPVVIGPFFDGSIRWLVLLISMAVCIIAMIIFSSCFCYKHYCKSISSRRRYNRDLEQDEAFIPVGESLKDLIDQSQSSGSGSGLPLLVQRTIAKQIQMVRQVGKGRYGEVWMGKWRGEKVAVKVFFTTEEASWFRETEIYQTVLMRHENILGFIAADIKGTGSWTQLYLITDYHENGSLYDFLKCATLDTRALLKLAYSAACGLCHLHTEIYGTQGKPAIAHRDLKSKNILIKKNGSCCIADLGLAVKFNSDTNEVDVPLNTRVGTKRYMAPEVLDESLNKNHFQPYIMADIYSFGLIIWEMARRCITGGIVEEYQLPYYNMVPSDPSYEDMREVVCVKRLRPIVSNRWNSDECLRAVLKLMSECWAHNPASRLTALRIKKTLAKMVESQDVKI

CAMK2a = CAMK2a (Homo sapiens, UniProt Q9UQM7); experiment: biochemical; details: read-out: % enzyme activity, 1 μM; Run 1, Run 2
Sequence of CAMK2a (Q9UQM7 whole entry): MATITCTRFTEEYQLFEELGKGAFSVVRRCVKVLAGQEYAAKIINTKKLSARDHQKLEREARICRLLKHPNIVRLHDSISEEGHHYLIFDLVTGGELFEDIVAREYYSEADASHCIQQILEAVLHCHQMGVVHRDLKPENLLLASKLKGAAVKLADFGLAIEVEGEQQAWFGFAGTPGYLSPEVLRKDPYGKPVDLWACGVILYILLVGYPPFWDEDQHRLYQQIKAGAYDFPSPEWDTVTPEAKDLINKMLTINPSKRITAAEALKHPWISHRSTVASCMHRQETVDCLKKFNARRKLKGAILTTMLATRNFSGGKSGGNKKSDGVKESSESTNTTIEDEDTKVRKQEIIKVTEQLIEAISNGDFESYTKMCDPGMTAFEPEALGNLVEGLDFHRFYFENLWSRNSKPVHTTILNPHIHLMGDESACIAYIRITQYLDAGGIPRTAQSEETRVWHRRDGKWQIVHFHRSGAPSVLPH

EPHA8 = molecular target: T4, EPHA8 (Homo sapiens, UniProt P29322); details: 1 μM; Run 1, Run 2
T4 sequence (P29322 28-1005): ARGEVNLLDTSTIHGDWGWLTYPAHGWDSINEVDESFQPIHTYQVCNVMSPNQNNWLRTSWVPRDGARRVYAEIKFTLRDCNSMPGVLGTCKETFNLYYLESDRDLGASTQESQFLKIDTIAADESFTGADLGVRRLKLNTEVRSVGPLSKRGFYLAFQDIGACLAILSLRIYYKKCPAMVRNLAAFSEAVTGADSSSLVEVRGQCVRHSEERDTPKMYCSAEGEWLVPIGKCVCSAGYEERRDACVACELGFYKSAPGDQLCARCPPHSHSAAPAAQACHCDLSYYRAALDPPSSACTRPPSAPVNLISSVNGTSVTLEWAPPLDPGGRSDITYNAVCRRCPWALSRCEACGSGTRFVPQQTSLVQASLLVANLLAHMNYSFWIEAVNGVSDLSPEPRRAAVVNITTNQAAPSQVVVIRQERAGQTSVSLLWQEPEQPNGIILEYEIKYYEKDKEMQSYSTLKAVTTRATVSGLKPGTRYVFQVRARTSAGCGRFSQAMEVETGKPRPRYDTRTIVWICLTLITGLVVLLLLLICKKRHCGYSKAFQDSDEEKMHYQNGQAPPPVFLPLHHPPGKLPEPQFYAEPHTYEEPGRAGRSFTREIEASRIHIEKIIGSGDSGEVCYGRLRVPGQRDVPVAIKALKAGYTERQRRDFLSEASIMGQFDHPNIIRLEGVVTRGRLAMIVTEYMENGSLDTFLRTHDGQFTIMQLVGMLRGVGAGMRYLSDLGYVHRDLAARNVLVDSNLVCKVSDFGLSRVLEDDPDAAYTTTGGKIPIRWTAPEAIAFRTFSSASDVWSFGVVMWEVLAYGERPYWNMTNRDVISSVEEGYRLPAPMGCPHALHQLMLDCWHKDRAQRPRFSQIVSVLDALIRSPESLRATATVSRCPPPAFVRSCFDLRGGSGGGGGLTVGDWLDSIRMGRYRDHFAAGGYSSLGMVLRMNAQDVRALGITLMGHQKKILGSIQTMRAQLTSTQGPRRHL

| Compound | remaining activity at 1 µM (EPHA6) [%] | % enzyme activity (CLK2) [%] | % enzyme activity (PLK1) [%] | remaining activity at 1 µM (MST1/STK4) [%] | % enzyme activity (FGR) [%] | % enzyme activity (ALK3/BMPR1A) [%] | remaining activity at 1 µM (ALK3/BMPR1A) [%] | remaining activity at 1 µM (CAMK2a) [%] | % enzyme activity (EPHA8) [%] |
| --- | --- | --- | --- | --- | --- | --- | --- | --- | --- |
| COc1cc(-c2cncc(-c3ccc(N4CCN(C)CC4)cc3)c2C)cc(F)c1C(N)=O [Compound 26a, 2-Fluoro-6-methoxy-4-(4-methyl-5-(4-(4-methylpiperazin-1-yl)phenyl)pyridin-3-yl)benzamide] | 105 | 91.71 | 91.24 | 101 | 74.69 | 40.21 | 38.4 | 85.5 | 94.54 |
| COc1cc(-c2cncc(-c3ccc(N4C[C@@H](C)N(C)[C@@H](C)C4)cc3)c2C)cc(F)c1C(N)=O [Compound 26c, 2-Fluoro-6-methoxy-4-(4-methyl-5-(4-((3R,5S)-3,4,5-trimethylpiperazin-1-yl)phenyl)pyridin-3-yl)benzamide] | 106 | 85.73 | 92.70 | 103 | 86.35 | 50.46 | 50 | 96.7 | 97.01 |
